Measured values taken from patent US11986532B2 (Arvinas Operations, Inc., priority 2021, dated 2024).
Like-named read-outs stand apart in the source and are kept apart here.

Molecular target: T1, BCL6 (Homo sapiens, UniProt P41182)
T1 construct: endogenous in cells; host or cells: T47D breast cancer epithelial cells
Test: Immunofluorescence protocol for high content imaging of BCL6 (degradation) in T47D cells, 3 days compound treatment
Format: cell-based
Conditions: for DC50: read-out: Mean DC50 (nM)* category; for Dmax: read-out: Mean Dmax (%)** category
In short: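 Remaining BCL6 in breast cancer T47D cells was measured by high-content immunofluorescence imaging after 3 days of treatment with serially diluted compound (top 0.1 or 1 μM). Nuclei were stained with Hoechst and cells with CellMask.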

[1] = T47D cells, 3 days compound treatment

In the case of `CNC(=O)COc1cc2cc(Nc3nc(N4CCN(C(C)(C)C5CCN(c6cc7c(c(OC)c6)C(=O)N(C6CCC(=O)NC6=O)C7)CC5)CC4)ncc3Cl)ccc2n(C(C)C)c1=O` (stereo not drawn) [Compound 77, 2-{[6-({5-chloro-2-[4-(2-{1-[2-(2,6-dioxopiperidin-3-yl)-7-methoxy-1-oxo-2,3-dihydro-1H-isoindol-5-yl]piperidin-4-yl}propan-2-yl)piperazin-1-yl]pyrimidin-4-yl}amino)-2-oxo-1-(propan-2-yl)-1,2-dihydroquinolin-3-yl]oxy}-N-methylacetamide], the DC50 [1] was under 10 nM and the Dmax [1] was 50 to 70%.
With `CNC(=O)COc1cc2cc(Nc3nc(N4CCC(N5CCC6(C5)CN(C5CCN(c7ccc8c(c7)C(=O)N(C7CCC(=O)NC7=O)C8=O)CC5)C6)CC4)ncc3Cl)ccc2n(C(C)C)c1=O` (stereo not drawn) [Compound 224, 2-{[6-({5-chloro-2-[4-(2-{1-[2-(2,6-dioxopiperidin-3-yl)-1,3-dioxo-2,3-dihydro-1H-isoindol-5-yl]piperidin-4-yl}-2,6-diazaspiro[3.4]octan-6-yl)piperidin-1-yl]pyrimidin-4-yl}amino)-2-oxo-1-(propan-2-yl)-1,2-dihydroquinolin-3-yl]oxy}-N-methylacetamide] the Dmax (T47D) was at least 70% and the DC50 was 10 to 50 nM.
In the case of `CNC(=O)COc1cc2cc(Nc3nc(N4CCC(O[C@H]5CC[C@H](N(C)C6CN(c7cccc8c7C(=O)N(C7CCC(=O)NC7=O)C8=O)C6)CC5)CC4)ncc3Cl)ccc2n(C(C)C)c1=O` (stereo partly drawn) [Compound 108, 2-[(6-{[5-chloro-2-(4-{[(1r,4r)-4-({1-[2-(2,6-dioxopiperidin-3-yl)-1,3-dioxo-2,3-dihydro-1H-isoindol-4-yl]azetidin-3-yl}(methyl)amino)cyclohexyl]oxy}piperidin-1-yl)pyrimidin-4-yl]amino}-2-oxo-1-(propan-2-yl)-1,2-dihydroquinolin-3-yl)oxy]-N-methylacetamide], the DC50 [1] was under 10 nM and the Dmax [1] was 50 to 70%.
`CNC(=O)COc1cc2cc(Nc3nc(N4CCC(F)(CN5CCC6(CCN(c7ccc8c(c7)CN(C7CCC(=O)NC7=O)C8=O)C6)C5)CC4)ncc3Cl)ccc2n(C(C)C)c1=O` (stereo not drawn) [Compound 17, 2-{[6-({5-chloro-2-[4-({7-[2-(2,6-dioxopiperidin-3-yl)-1-oxo-2,3-dihydro-1H-isoindol-5-yl]-2,7-diazaspiro[4.4]nonan-2-yl}methyl)-4-fluoropiperidin-1-yl]pyrimidin-4-yl}amino)-2-oxo-1-(propan-2-yl)-1,2-dihydroquinolin-3-yl]oxy}-N-methylacetamide] was tested, and the DC50 [1] was under 10 nM and the Dmax [1] was under 50%.
`CNC(=O)COc1cc2cc(Nc3nc(N4CCN(CC5CCC6(CC5)CN(c5cc(F)cc7c5CN(C5CCC(=O)NC5=O)C7=O)C6)CC4)ncc3Cl)ccc2n(C(C)C)c1=O` (stereo not drawn) [Compound 315, 2-{[6-({5-chloro-2-[4-({2-[2-(2,6-dioxopiperidin-3-yl)-6-fluoro-1-oxo-2,3-dihydro-1H-isoindol-4-yl]-2-azaspiro[3.5]nonan-7-yl}methyl)piperazin-1-yl]pyrimidin-4-yl}amino)-2-oxo-1-(propan-2-yl)-1,2-dihydroquinolin-3-yl]oxy}-N-methylacetamide] showed a Dmax (T47D) of 50 to 70% and a DC50 of under 10 nM.
With `CNC(=O)COc1cc2cc(Nc3nc(N4CCC(O[C@H]5C[C@H](N6CCN(c7ccc8c(c7C)C(=O)N(C7CCC(=O)NC7=O)C8=O)[C@H](C)C6)C5)CC4)ncc3Cl)ccc2n(C(C)C)c1=O` (stereo partly drawn) [Compound 193, 2-({6-[(5-chloro-2-{4-[(1r,3r)-3-[(3R)-4-[2-(2,6-dioxopiperidin-3-yl)-4-methyl-1,3-dioxoisoindol-5-yl]-3-methylpiperazin-1-yl]cyclobutoxy]piperidin-1-yl}pyrimidin-4-yl)amino]-1-isopropyl-2-oxoquinolin-3-yl}oxy)-N-methylacetamide] the DC50 [1] was under 10 nM and the Dmax [1] was at least 70%.
`CNC(=O)COc1cc2cc(Nc3nc(N4CCC(OC5CN([C@H]6CC[C@@H](c7ccc8c(c7)CN(C7CCC(=O)NC7=O)C8=O)CC6)C5)CC4)ncc3Cl)ccc2n(C(C)C)c1=O` (single isomer, unassigned) [Compound 166, 2-[[6-[[5-chloro-2-[4-[1-[4-[2-(2,6-dioxo-3-piperidyl)-1-oxo-isoindolin-5-yl]cyclohexyl]azetidin-3-yl]oxy-1-piperidyl]pyrimidin-4-yl]amino]-1-isopropyl-2-oxo-3-quinolyl]oxy]-N-methyl-acetamide] was tested, and the DC50 [1] was under 10 nM and the Dmax [1] was 50 to 70%.
`CNC(=O)COc1cc2cc(Nc3nc(N4CCC(O[C@H]5C[C@H](N6CCC7(CC6)CN(c6ccc8c(c6F)CN(C6CCC(=O)NC6=O)C8=O)C7)C5)CC4)ncc3Cl)ccc2n(C(C)C)c1=O` (stereo partly drawn) [Compound 410, 2-({6-[(5-chloro-2-{4-[(1r,3r)-3-{2-[2-(2,6-dioxopiperidin-3-yl)-4-fluoro-1-oxo-2,3-dihydro-1H-isoindol-5-yl]-2,7-diazaspiro[3.5]nonan-7-yl}cyclobutoxy]piperidin-1-yl}pyrimidin-4-yl)amino]-2-oxo-1-(propan-2-yl)-1,2-dihydroquinolin-3-yl}oxy)-N-methylacetamide] showed a Dmax (T47D) of at least 70% and a DC50 of under 10 nM.
For `CNC(=O)COc1cc2cc(Nc3nc(N4CCC(OC5CN(C6CCN(c7ccc8c(c7F)CN(C7CCC(=O)NC7=O)C8=O)CC6)C5)CC4)ncc3Cl)ccc2n(C(C)C)c1=O` (stereo not drawn) [Compound 260, 2-({6-[(5-chloro-2-{4-[(1-{1-[2-(2,6-dioxopiperidin-3-yl)-4-fluoro-1-oxo-2,3-dihydro-1H-isoindol-5-yl]piperidin-4-yl}azetidin-3-yl)oxy]piperidin-1-yl}pyrimidin-4-yl)amino]-2-oxo-1-(propan-2-yl)-1,2-dihydroquinolin-3-yl}oxy)-N-methylacetamide], the Dmax (T47D) was 50 to 70% and the DC50 was under 10 nM.
`CNC(=O)COc1cc2cc(Nc3nc(N4CCC(O[C@H]5C[C@H](N6C[C@H](C)N(c7ccc8c(c7)C(=O)N(C7CCC(=O)NC7=O)C8=O)[C@@H](C)C6)C5)CC4)ncc3Cl)ccc2n(C(C)C)c1=O` (stereo partly drawn) [Compound 246, 2-({6-[(5-chloro-2-{4-[(1r,3r)-3-[(3S,5S)-4-[2-(2,6-dioxopiperidin-3-yl)-1,3-dioxo-2,3-dihydro-1H-isoindol-5-yl]-3,5-dimethylpiperazin-1-yl]cyclobutoxy]piperidin-1-yl}pyrimidin-4-yl)amino]-2-oxo-1-(propan-2-yl)-1,2-dihydroquinolin-3-yl}oxy)-N-methylacetamide] was tested, and the Dmax (T47D) was 50 to 70% and the DC50 was under 10 nM.
With `CNC(=O)COc1cc2cc(Nc3nc(N4CCC(O[C@H]5C[C@H](N6CCC7(CCN(c8ccc9c(c8)C(=O)N(C8CCC(=O)NC8=O)C9=O)CC7)CC6)C5)CC4)ncc3Cl)ccc2n(C(C)C)c1=O` (stereo partly drawn) [Compound 343, 2-({6-[(5-chloro-2-{4-[(1r,3r)-3-{9-[2-(2,6-dioxopiperidin-3-yl)-1,3-dioxo-2,3-dihydro-1H-isoindol-5-yl]-3,9-diazaspiro [5.5]undecan-3-yl}cyclobutoxy]piperidin-1-yl}pyrimidin-4-yl)amino]-2-oxo-1-(propan-2-yl)-1,2-dihydroquinolin-3-yl}oxy)-N-methylacetamide] the Dmax (T47D) was 50 to 70% and the DC50 was under 10 nM.
With `CNC(=O)COc1cc2cc(Nc3nc(N4CCN(C[C@H]5C[C@H](N6CCC(c7ccc8c(c7)C(=O)N(C7CCC(=O)NC7=O)C8=O)CC6)C5)CC4)ncc3Cl)ccc2n(C(C)C)c1=O` (stereo partly drawn) [Compound 41, 2-[(6-{[5-chloro-2-(4-{[(1r,3r)-3-{4-[2-(2,6-dioxopiperidin-3-yl)-1,3-dioxo-2,3-dihydro-1H-isoindol-5-yl]piperidin-1-yl}cyclobutyl]methyl}piperazin-1-yl)pyrimidin-4-yl]amino}-2-oxo-1-(propan-2-yl)-1,2-dihydroquinolin-3-yl)oxy]-N-methylacetamide] the DC50 [1] was 50 to 100 nM and the Dmax [1] was at least 70%.
In the case of `CNC(=O)COc1cc2cc(Nc3nc(N4CCOC5(CN(CCC6CCN(c7ccc8c(c7)C(=O)N(C7CCC(=O)NC7=O)C8=O)CC6)C5)C4)ncc3Cl)ccc2n(C(C)C)c1=O` (stereo not drawn) [Compound 145, 2-{[6-({5-chloro-2-[2-(2-{1-[2-(2,6-dioxopiperidin-3-yl)-1,3-dioxo-2,3-dihydro-1H-isoindol-5-yl]piperidin-4-yl}ethyl)-5-oxa-2,8-diazaspiro[3.5]nonan-8-yl]pyrimidin-4-yl}amino)-2-oxo-1-(propan-2-yl)-1,2-dihydroquinolin-3-yl]oxy}-N-methylacetamide], the DC50 [1] was under 10 nM.
`CNC(=O)COc1cc2cc(Nc3nc(N4CCC(F)(CN5CC6(CCN(c7cccc8c7CN(C7CCC(=O)NC7=O)C8=O)CC6)C5)CC4)ncc3Cl)ccc2n(C(C)C)c1=O` (stereo not drawn) [Compound 99] gave a DC50 [1] of under 10 nM and a Dmax [1] of 50 to 70%.
Compound `CNC(=O)COc1cc2cc(Nc3nc(N4CCC(N5CCC56CN(C5CCN(c7ccc8c(c7)CN(C7CCC(=O)NC7=O)C8=O)CC5)C6)CC4)ncc3Cl)ccc2n(C(C)C)c1=O` (stereo not drawn) [Compound 238, 2-{[6-({5-chloro-2-[4-(6-{1-[2-(2,6-dioxopiperidin-3-yl)-1-oxo-2,3-dihydro-1H-isoindol-5-yl]piperidin-4-yl}-1,6-diazaspiro[3.3]heptan-1-yl)piperidin-1-yl]pyrimidin-4-yl}amino)-2-oxo-1-(propan-2-yl)-1,2-dihydroquinolin-3-yl]oxy}-N-methylacetamide] has a Dmax (T47D) of 50 to 70% and a DC50 of under 10 nM.
In the case of `CNC(=O)COc1cc2cc(Nc3nc(N4CCOC5(CN(CC6CCN(c7cccc8c7C(=O)N(C7CCC(=O)NC7=O)C8=O)CC6)C5)C4)ncc3Cl)ccc2n(C(C)C)c1=O` (stereo not drawn) [Compound 143, 2-{[6-({5-chloro-2-[2-({1-[2-(2,6-dioxopiperidin-3-yl)-1,3-dioxo-2,3-dihydro-1H-isoindol-4-yl]piperidin-4-yl}methyl)-5-oxa-2,8-diazaspiro[3.5]nonan-8-yl]pyrimidin-4-yl}amino)-2-oxo-1-(propan-2-yl)-1,2-dihydroquinolin-3-yl]oxy}-N-methylacetamide], the DC50 [1] was at least 100 nM.
